{
  "source": "patent US8795997B2",
  "about": "(priority 2009, dated 2014)",
  "assay_type_in_all_cases": "cell-based",
  "key": {"[1]": {"tested_on": "baker's yeast (Saccharomyces cerevisiae)", "experimental": "The pH of the sugarcane bagass and spruce hydrolysates were adjusted to 5.5 with a 5 M solution of sodium hydroxide. The conditioning of each hydrolysate was performed in eight 100-mL glass vessels equipped with magnetic stirrer bars. 26 mL hydrolysate was added to all vessels, and the vessels were placed on a magnetic stirrer plate (IKA-Werke, Staufen, Germany). Sodium dithionite (chemical grade; >87%, Merck, Darmstadt, Germany) was added to hydrolysates in the concentrations 5 and 10 mM. Additions of sodium sulphite to 5 and 10 mM were also performed. The additions were made at room temperature (23° C.) and the samples were kept for 10 min with stirring. The experiments were performed in duplicates.\nThe efficiency of the additions of the reducing agents was compared with alkali detoxification.\nEthanol measurements were performed by using an enzymatic kit (Ethanol UV-method, Boehringer Mannheim GmbH, Mannheim, Germany). Fermentation experiments were performed to evaluate the effectiveness of the additions and treatments. For comparison, untreated hydrolysates were included in the fermentation experiments as well as reference fermentations of sugar-based medium with an amount of fermentable sugars (i.e. glucose and mannose) corresponding to that in the hydrolysate samples. The fermentations were carried out using baker's yeast (Saccharomyces cerevisiae) (Jastbolaget AB, Rotebro, Sweden). The yeast inoculum was prepared in 750-mL cotton-plugged shake flasks with 300 mL YEPD medium (2% yeast extract, 1% peptone, 2% D-glucose). The flasks were inoculated and incubated with agitation at 30° C. for approximately 12 h. The cells were harvested in the late exponential growth phase by centrifugation (Hermla Z206A, Hermle Labortechnik GmbH, Wehingen, Germany) at 1,500 g for 5 min. The cells were resuspended in an appropriate amount of sterile water to achieve an inoculum consisting of 2.0 g/L (cell dry weight) in all fermentation vessels. The fermentation was carried out in 14 25-mL glass flasks equipped with magnets for stirring and sealed with rubber plugs pierced with cannulas for letting out carbon dioxide. The hydrolysate samples (23.75 mL), or alternatively the sugar solution for reference fermentations, were added to the fermentation flasks along with 0.5 mL of a nutrient solution (150 g/L yeast extract, 75 g/L (NH4)2HPO4, 3.75 g/L MgSO4.7H2O, 238.2 g/L NaH2PO4.H2O), and 0.75 mL of yeast inoculum. The flasks were incubated at 30° C. in a water bath with magnetic stirring (IKA-Werke). Samples for measurement of sugars and ethanol were withdrawn during the fermentation. The glucose levels during the fermentation were estimated by using a glucometer (Glucometer Elite XL, Bayer AG, Leverkusen, Germany)."}, "[2]": {"tested_on": "yeast Saccharomyces cerevisiae", "experiment": "Simultaneous saccharification and fermentation (SSF) of spruce slurry", "conditions": "for Final ethanol concentration: after 70 hours", "experimental": "Addition of sodium dithionite and sodium sulphite was tested in an SSF process. Spruce was pretreated as described in Example 1 above. The spruce slurry was adjusted to pH 5.4 with a 5 M solution of sodium hydroxide. Ten 250-mL shake flasks equipped with magnetic stirrer bars were filled with 100 g of spruce slurry. Sodium dithionite or sodium sulphite was added to the slurries to final concentrations of 7.5 and 10 mM. The additions were performed at room temperature (23° C.) for 10 min with stirring. Duplicate experiments were made. Cellulase and cellobiase preparations were prepared and added to the slurry using the enzyme activity loadings as described in Example 1 above. Further, the yeast inoculum was prepared according to Example 1 above. Inoculums were added to give a start concentration of 2.0 g/L (cell dry weight) in every flask. No source of extra nutrients was added. For comparison, two flasks with spruce slurry to which no reducing agents had been added were included in the experiment. The flasks were incubated at 35° C. for 69 h in a water bath with magnetic stirring. The flasks were sealed with Parafilm (Pechiney Plastic Packaging Company, Chicago, Ill., USA) to prevent evaporation of ethanol. Samples were withdrawn for analysis of ethanol according to Examplel above.\nA spruce slurry was prepared according to Examples 1 and 2 above. Different flasks were filled with 100 g each of the spruce slurry and were subjected to a SSF process according to Example 2 above, but with different amounts of dithionite and sulphite added. The produced ethanol was monitored during the fermentation. […]"}, "[3]": {"tested_on": "yeast Saccharomyces cerevisiae", "experiment": "Simultaneous saccharification and fermentation (SSF) of sugarcane bagass slurry", "conditions": "for Fermentability: 7.5 and 10 mM, 13 and 45 hours (FIG. 9)", "experimental": "The pretreatment of sugarcane bagass for SSF experiments was performed in the Swedish cellulosic ethanol pilot plant (operated by SEKAB E-Technology, Örnskoldsvik, Sweden). Sugarcane bagass was treated in a continuous mode in a 30-liter reactor at a temperature of 198-199° C. and with a residence time of 13-14 min. The feed rate was 24 kg (dry weight) per h and the bagass was impregnated with sulfur dioxide (0.5 kg/h). The pH after pretreatment was 2.7. The dry matter content was 19%. The pretreated material was cooled and stored at 4° C. until further use.\nSSF experiments were also performed with sugarcane bagass slurries. The sugarcane bagass slurries were prepared as described in Example 1. Reducing agents, dithionite and sulphite, respectively, were added 10 min prior to inoculum in concentrations of studied 7.5 and 10 mM. The ethanol concentration was measured after 13 and 45 hours according to the protocol described in Example 1."}, "[4]": {"conditions": "spruce hydrolysate, 10 mM (FIGS. 1 and 2)"}, "[5]": {"conditions": "spruce hydrolysate, 14 h fermentation, 10 mM"}, "[6]": {"conditions": "6 h fermentation, NH4OH detoxification, pH 9, 55° C., 3 h"}, "[7]": {"conditions": "spruce hydrolysate, 14 h fermentation, NH4OH detoxification, pH 9, 55° C., 3 h"}},
  "note": "Like-named read-outs stand apart in the source and are kept apart here.",
  "data": [
    {"smiles": "O=S([O-])S(=O)[O-].[Na+].[Na+]", "note": "[Dithionite, Sodium dithionite]", "values": [
      {"measurement": "Ethanol concentration compared with other additions", "setting": "[1]; 10 mM (FIG. 4)", "result": "higher ethanol concentration compared to addition of 5 mM dithionite or 10 mM sulphite"},
      {"measurement": "Balanced ethanol yield", "setting": "[1]; 6 h fermentation, 10 mM", "result": "0.28 g EtOH/Σglucose & mannose prior to detoxification"},
      {"measurement": "Productivity", "setting": "[1]; 6 h fermentation, 10 mM", "result": 3.9, "unit": "g EtOH×L^−1×h^−1"},
      {"measurement": "Yield (ethanol)", "setting": "[1]; 6 h fermentation, 10 mM", "result": "0.34 g EtOH/g consumed glucose & mannose"},
      {"measurement": "Glucose consumption rates and amounts of ethanol produced", "setting": "[1]; spruce hydrolysate, 5 mM (FIGS. 1 and 2)", "result": "substantial improvement compared to untreated hydrolysate"},
      {"measurement": "Glucose consumption rates and amounts of ethanol produced", "setting": "[1]; [4]", "result": "comparable to those of the reference fermentation"},
      {"measurement": "Balanced ethanol yield", "setting": "[1]; [5]", "result": "0.34 g EtOH/Σglucose & mannose prior to detoxification"},
      {"measurement": "Productivity", "setting": "[1]; [5]", "result": 2.5, "unit": "g EtOH×L^−1×h^−1"},
      {"measurement": "Yield (ethanol)", "setting": "[1]; [5]", "result": "0.37 g EtOH/g consumed glucose & mannose"},
      {"measurement": "Final ethanol concentration", "setting": "[2]; 2.5 mM", "result": "about 10 g/L"},
      {"measurement": "Final ethanol concentration", "setting": "[2]; 5 mM", "result": "35 to 40", "unit": "g/L"},
      {"measurement": "Final ethanol concentration", "setting": "[2]; 7.5 mM", "result": "highest ethanol production"},
      {"measurement": "Ethanol levels and ethanol formation", "setting": "[2]; 7.5 mM, compared with 10 mM dithionite (FIG. 5)", "result": "reached the same high levels of ethanol, but ethanol formation was slightly slower"},
      {"measurement": "Time after which ethanol formation leveled off", "setting": "[2]; 10 mM (FIG. 5)", "result": "about 45 h"},
      {"measurement": "Improvement of ethanol production, dithionite compared with sulphite", "setting": "[2]; 10 mM (FIG. 8)", "result": "better improvement than the addition of sulphite"},
      {"measurement": "Final ethanol concentration", "setting": "[2]; 10 mM", "result": "highest ethanol production"},
      {"measurement": "Final ethanol concentration", "setting": "[2]; 15 mM", "result": "highest ethanol production"},
      {"measurement": "Final ethanol concentration", "setting": "[2]; 20 mM", "result": "35 to 40", "unit": "g/L"},
      {"measurement": "Final ethanol concentration", "setting": "[2]; 30 mM", "result": "about 30 g/L"},
      {"measurement": "Ethanol production compared to untreated", "setting": "[2]; 7.5 and 10 mM (FIG. 5)", "result": "higher ethanol production compared to the untreated hydrolysate"},
      {"measurement": "Fermentability", "setting": "[3]", "result": "improved fermentability"},
      {"measurement": "Ethanol production, dithionite compared with sulphite", "setting": "[3]; 10 and 7.5 mM (FIG. 9)", "result": "better than any of the sulphite concentrations"}
    ]},
    {"smiles": "N", "note": "[NH4OH, ammonium hydroxide, reference compound]", "values": [
      {"measurement": "Balanced ethanol yield", "setting": "[1]; [6]", "result": "0.25 g EtOH/Σglucose & mannose prior to detoxification"},
      {"measurement": "Productivity", "setting": "[1]; [6]", "result": 3.5, "unit": "g EtOH×L^−1×h^−1"},
      {"measurement": "Yield (ethanol)", "setting": "[1]; [6]", "result": "0.34 g EtOH/g consumed glucose & mannose"},
      {"measurement": "Balanced ethanol yield", "setting": "[1]; [7]", "result": "0.37 g EtOH/Σglucose & mannose prior to detoxification"},
      {"measurement": "Productivity", "setting": "[1]; [7]", "result": 2.8, "unit": "g EtOH×L^−1×h^−1"},
      {"measurement": "Yield (ethanol)", "setting": "[1]; [7]", "result": "0.43 g EtOH/g consumed glucose & mannose"}
    ]},
    {"smiles": "O=S([O-])[O-].[Na+].[Na+]", "note": "[Sulphite, sodium sulphite]", "values": [
      {"measurement": "Balanced ethanol yield", "setting": "[1]; 6 h fermentation, 10 mM", "result": "0.21 g EtOH/Σglucose & mannose prior to detoxification"},
      {"measurement": "Productivity", "setting": "[1]; 6 h fermentation, 10 mM", "result": 2.9, "unit": "g EtOH×L^−1×h^−1"},
      {"measurement": "Yield (ethanol)", "setting": "[1]; 6 h fermentation, 10 mM", "result": "0.32 g EtOH/g consumed glucose & mannose"},
      {"measurement": "Glucose consumption rates and amounts of ethanol produced", "setting": "[1]; [4]", "result": "substantial improvement compared to untreated hydrolysate"},
      {"measurement": "Balanced ethanol yield", "setting": "[1]; [5]", "result": "0.16 g EtOH/Σglucose & mannose prior to detoxification"},
      {"measurement": "Productivity", "setting": "[1]; [5]", "result": 1.2, "unit": "g EtOH×L^−1×h^−1"},
      {"measurement": "Yield (ethanol)", "setting": "[1]; [5]", "result": "0.29 g EtOH/g consumed glucose & mannose"},
      {"measurement": "Final ethanol concentration", "setting": "[2]; 2.5 mM", "result": "did not result in as high final ethanol concentrations"},
      {"measurement": "Final ethanol concentration", "setting": "[2]; 5 mM", "result": "did not result in as high final ethanol concentrations"},
      {"measurement": "Final ethanol concentration", "setting": "[2]; 7.5 mM", "result": "35 to 40", "unit": "g/L"},
      {"measurement": "Final ethanol concentration", "setting": "[2]; 10 mM", "result": "35 to 40", "unit": "g/L"},
      {"measurement": "Final ethanol concentration", "setting": "[2]; 15 mM", "result": "about 40 g/L"},
      {"measurement": "Final ethanol concentration", "setting": "[2]; 20 mM", "result": "about 40 g/L"},
      {"measurement": "Final ethanol concentration", "setting": "[2]; 30 mM", "result": "about 40 g/L"},
      {"measurement": "Ethanol production compared to untreated", "setting": "[2]; 7.5 and 10 mM (FIG. 5)", "result": "higher ethanol production compared to the untreated hydrolysate"},
      {"measurement": "Ethanol production compared with dithionite samples", "setting": "[2]; 7.5 and 10 mM (FIG. 5)", "result": "lower ethanol production compared to the samples to which dithionite was added"},
      {"measurement": "Time after which ethanol formation leveled off", "setting": "[2]; 7.5 and 10 mM (FIG. 5)", "result": 20, "unit": "h"},
      {"measurement": "Fermentability", "setting": "[3]", "result": "improved fermentability"}
    ]}
  ]
}
